For 28 molecules, EC50 results are on record in patent publication US10472386B2, “Bile acid derivatives as FXR agonists and methods of use thereof” (priority 2017, dated 2019).

The EC50 is the midpoint of the concentration-response curve. Low readings indicate an effect from little substance, high ones a need for much substance.

A value given as a limit tells only on which side of the number the result lay.

This experiment has as its target T1, human FXR (NR1H4) (Homo sapiens, UniProt Q96RI1).
T1 sequence (Q96RI1 1-486): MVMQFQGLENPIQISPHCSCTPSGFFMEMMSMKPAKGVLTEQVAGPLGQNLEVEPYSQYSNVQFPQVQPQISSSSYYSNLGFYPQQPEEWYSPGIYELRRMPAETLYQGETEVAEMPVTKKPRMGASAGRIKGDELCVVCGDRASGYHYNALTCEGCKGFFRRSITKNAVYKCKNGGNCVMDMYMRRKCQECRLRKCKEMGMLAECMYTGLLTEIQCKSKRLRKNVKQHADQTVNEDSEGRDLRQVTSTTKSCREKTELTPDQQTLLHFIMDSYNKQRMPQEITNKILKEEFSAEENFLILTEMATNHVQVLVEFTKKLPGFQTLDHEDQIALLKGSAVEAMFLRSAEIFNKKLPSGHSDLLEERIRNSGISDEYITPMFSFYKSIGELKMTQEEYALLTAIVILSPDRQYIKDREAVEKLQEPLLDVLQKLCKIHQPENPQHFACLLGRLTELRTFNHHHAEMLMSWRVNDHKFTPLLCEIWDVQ
Nature of the experiment: Human FXR (NR1H4) Assay (Gal4 promoter driven luciferase reporter, Indigo Bioscience kit IB00601). Conditions: FXR agonistic potency; CHO reporter cells expressing human NR1H4; 22 hours incubation; luciferase readout. Format: cell-based. From the text: Determination of a ligand mediated Gal4 promoter driven transactivation to quantify ligand binding mediated activation of FXR. FXR Reporter Assay kit purchased from Indigo Bioscience (Catalogue number: IB00601) to determine the potency and efficacy of compound developed by Enanta that can induce FXR activation. The principle application of this reporter assay system is to quantify functional activity of human FXR. The assay utilizes non-human mammalian cells, CHO (Chinese hamster ovary) cells engineered to express human NR1H4 protein (referred to as FXR). Reporter cells also incorporate the cDNA encoding beetle luciferase which catalyzes the substrates and yields photon emission. Luminescence intensity of the reaction is quantified using a plate-reading luminometer, Envision. Reporter Cells include the luciferase reporter gene functionally linked to an FXR responsive promoter. Thus, quantifying changes in luciferase expression in the treated reporter cells provides a sensitive surrogate measure of the changes in FXR activity. […] The assay is according to the manufacturer's instructions. In brief, the assay was performed in white, 96 well plates using final volume of 100 uL containing cells with different doses of compounds. Retrieve Reporter Cells from −80° C. storage. Perform a rapid thaw of the frozen cells by transferring a 10 ml volume of 37° C. cell recovery medium into the tube of frozen cells. Recap the tube of Reporter Cells and immediately place it in a 37° C. water bath for 5-10 minutes. Retrieve the tube of Reporter Cell Suspension from the water bath. Sanitize the outside surface of the tube with a 70% alcohol swab, and then transfer it into the cell culture hood. Dispense 90 μl of cell suspension into each well of the 96-well Assay Plate. Transfer the plate into 37° C. incubator, allowing the cells adherent to the bottom of the well. Dilute compounds in Dilution Plate (DP), and administrate to cells at Assay Plate (AP). DMSO content of the samples was kept at 0.2%. Cells were incubated for additional 22 hours before luciferase activities were measured. Thirty minutes before intending to quantify FXR activity, remove Detection Substrate and Detection Buffer from the refrigerator and place them in a low-light area so that they may equilibrate to room temperature. Remove the plate's lid and discard all media contents by ejecting it into an appropriate waste container. Gently tap the inverted plate onto a clean absorbent paper towel to remove residual droplets. Cells will remain tightly adhered to well bottoms. Add 100 μl of luciferase detection reagent to each well of the assay plate. Allow the assay plate to rest at room temperature for at least 5 minutes following the addition of LDR. Set the instrument (Envision) to perform a single 5 second “plate shake” prior to reading the first assay well. Read time may be 0.5 second (500 mSec) per well.

As to `CC[C@H]1[C@@H](O)[C@@H]2[C@H](CC[C@]3(C)[C@@H]([C@H](C)COC(=O)NS(=O)(=O)c4ccc(OC5(C)CC5)cc4)CC[C@@H]23)[C@@]2(C)CC[C@@H](O)C[C@@H]12` [Example 29], the EC50 is less than 1 nM.

In turn, `CC[C@H]1[C@@H](O)[C@@H]2[C@H](C[C@H](O)[C@]3(C)[C@@H]([C@H](C)COC(=O)NS(=O)(=O)c4ccc(OC(C)C)cc4)CC[C@@H]23)[C@@]2(C)CC[C@@H](O)C[C@@H]12` [Example 31] had an EC50 greater than 100 nM.

Molecule `CC[C@H]1[C@@H](O)[C@@H]2[C@H](CC[C@]3(C)[C@@H]([C@H](C)COC(=O)NS(=O)(=O)c4ccc(OC5(C)CCCCC5)cc4)CC[C@@H]23)[C@@]2(C)CC[C@@H](O)C[C@@H]12` [Example 12] yielded a concentration for a half-maximal effect (EC50) of less than 1 nM.

`CC[C@H]1[C@@H](O)[C@@H]2[C@H](CC[C@]3(C)[C@@H]([C@H](C)COC(=O)NS(=O)(=O)c4ccc(O[C@@H](C)CC)cc4)CC[C@@H]23)[C@@]2(C)CC[C@@H](O)C[C@@H]12` [Example 16] returned an EC50 of less than 1 nM.

`CC[C@H]1[C@@H](O)[C@@H]2[C@H](CC[C@]3(C)[C@@H]([C@H](C)COC(=O)NS(=O)(=O)c4ccc(OC5(C)CCCC5)cc4)CC[C@@H]23)[C@@]2(C)CC[C@@H](O)C[C@@H]12` [Example 10] registered an EC50 of less than 1 nM.

The molecule `CC[C@H]1[C@@H](O)[C@@H]2[C@H](CC[C@]3(C)[C@@H]([C@H](C)COC(=O)NS(=O)(=O)c4ccc(OC(F)(F)F)cc4)CC[C@@H]23)[C@@]2(C)CC[C@@H](O)C[C@@H]12` [Example 23] came in with an EC50 greater than 100 nM.

Molecule `CC[C@H]1[C@@H](O)[C@@H]2[C@H](CC[C@]3(C)[C@@H]([C@H](C)COC(=O)NS(=O)(=O)c4ccc(OC5CC5)cc4)CC[C@@H]23)[C@@]2(C)CC[C@@H](O)C[C@@H]12` [Example 7] showed an EC50 of less than 1 nM.

The molecule `CC[C@H]1[C@@H](O)[C@@H]2[C@H](C[C@H](O)[C@]3(C)[C@@H]([C@H](C)COC(=O)NS(=O)(=O)c4ccc5c(c4)CCC(C)(C)O5)CC[C@@H]23)[C@@]2(C)CC[C@@H](O)C[C@@H]12` [Example 32] had an EC50 greater than 100 nM.

In the case of `CCOc1ccc(S(=O)(=O)NC(=O)OC[C@@H](C)[C@H]2CC[C@H]3[C@@H]4[C@H](O)[C@H](CC)[C@@H]5C[C@H](O)CC[C@]5(C)[C@H]4CC[C@]23C)cc1` [Example 14], the EC50 is less than 1 nM.

The molecule `CC[C@H]1[C@@H](O)[C@@H]2[C@H](CC[C@]3(C)[C@@H]([C@H](C)COC(=O)NS(=O)(=O)c4ccc(OC(C)(C)C)cn4)CC[C@@H]23)[C@@]2(C)CC[C@@H](O)C[C@@H]12` [Example 22] showed an EC50 of less than 1 nM.

`CC[C@H]1[C@@H](O)[C@@H]2[C@H](CC[C@]3(C)[C@@H]([C@H](C)COC(=O)NS(=O)(=O)c4ccc(Oc5ccccc5)cc4)CC[C@@H]23)[C@@]2(C)CC[C@@H](O)C[C@@H]12` [Example 25] had an EC50 greater than 100 nM.

In the case of `CC[C@H]1[C@@H](O)[C@@H]2[C@H](CC[C@]3(C)[C@@H]([C@H](C)COC(=O)NS(=O)(=O)c4ccc(OC)cc4)CC[C@@H]23)[C@@]2(C)CC[C@@H](O)C[C@@H]12` [Example 27], the EC50 was 1 to 10 nM.

Regarding `CC[C@H]1[C@@H](O)[C@@H]2[C@H](CC[C@]3(C)[C@@H]([C@H](C)COC(=O)NS(=O)(=O)c4ccc(OC(C)(C)C)cc4)CC[C@@H]23)[C@@]2(C)CC[C@@H](O)C[C@@H]12` [Example 24], the concentration for a half-maximal effect (EC50) is less than 1 nM.

`CC[C@H]1[C@@H](O)[C@@H]2[C@H](CC[C@]3(C)[C@@H]([C@H](C)COC(=O)NS(=O)(=O)c4ccc5c(c4)CC(C)(C)O5)CC[C@@H]23)[C@@]2(C)CC[C@@H](O)C[C@@H]12` [Example 6] had an EC50 of less than 1 nM.

For `CC[C@H]1[C@@H](O)[C@@H]2[C@H](CC[C@]3(C)[C@@H]([C@H](C)COC(=O)NS(=O)(=O)c4cc(C)c(OC(C)C)c(C)c4)CC[C@@H]23)[C@@]2(C)CC[C@@H](O)C[C@@H]12` [Example 18], the EC50 is less than 1 nM.

For `CC[C@H]1[C@@H](O)[C@@H]2[C@H](CC[C@]3(C)[C@@H]([C@H](C)COC(=O)NS(=O)(=O)c4ccc(OC(F)(F)C(F)(F)F)cc4)CC[C@@H]23)[C@@]2(C)CC[C@@H](O)C[C@@H]12` [Example 30], the EC50 is 1 to 10 nM.

The molecule `C[C@H](COC(=O)NS(=O)(=O)c1ccc(OC(C)(C)C)cc1)[C@H]1CC[C@H]2[C@@H]3[C@H](O)C[C@@H]4C[C@H](O)CC[C@]4(C)[C@H]3CC[C@]12C` [Example 2] yielded an EC50 of 10 to 100 nM.

`CC[C@H]1[C@@H](O)[C@@H]2[C@H](CC[C@]3(C)[C@@H]([C@H](C)COC(=O)NS(=O)(=O)c4cnc(OC(C)C)nc4)CC[C@@H]23)[C@@]2(C)CC[C@@H](O)C[C@@H]12` [Example 28] yielded an EC50 of 10 to 100 nM.

On to `CC[C@H]1[C@@H](O)[C@@H]2[C@H](CC[C@]3(C)[C@@H]([C@H](C)COC(=O)NS(=O)(=O)c4ccc(O)cc4)CC[C@@H]23)[C@@]2(C)CC[C@@H](O)C[C@@H]12` [Example 26], for which the EC50 was greater than 100 nM.

The molecule `CC[C@H]1[C@@H](O)[C@@H]2[C@H](CC[C@]3(C)[C@@H]([C@H](C)COC(=O)NS(=O)(=O)c4ccc(OC(C)C)cc4)CC[C@@H]23)[C@@]2(C)CC[C@@H](O)C[C@@H]12` [Example 4] registered an EC50 of less than 1 nM.

Molecule `CCCOc1ccc(S(=O)(=O)NC(=O)OC[C@@H](C)[C@H]2CC[C@H]3[C@@H]4[C@H](O)[C@H](CC)[C@@H]5C[C@H](O)CC[C@]5(C)[C@H]4CC[C@]23C)cc1` [Example 15] showed an EC50 of less than 1 nM.

`CC[C@H]1[C@@H](O)[C@@H]2[C@H](CC[C@]3(C)[C@@H]([C@H](C)COC(=O)NS(=O)(=O)c4ccc(O[C@H](C)CC)cc4)CC[C@@H]23)[C@@]2(C)CC[C@@H](O)C[C@@H]12` [Example 17] came in with an EC50 of less than 1 nM.

The molecule `CC[C@H]1[C@@H](O)[C@@H]2[C@H](CC[C@]3(C)[C@@H]([C@H](C)COC(=O)NS(=O)(=O)c4ccc(OC5CCCCC5)cc4)CC[C@@H]23)[C@@]2(C)CC[C@@H](O)C[C@@H]12` [Example 11] came in with an EC50 of 1 to 10 nM.

Molecule `CC[C@H]1[C@@H](O)[C@@H]2[C@H](CC[C@]3(C)[C@@H]([C@H](C)COC(=O)NS(=O)(=O)c4ccc(OC(C)C)c(C)c4)CC[C@@H]23)[C@@]2(C)CC[C@@H](O)C[C@@H]12` [Example 13] returned an EC50 of less than 1 nM.

`CC[C@H]1[C@@H](O)[C@@H]2[C@H](CC[C@]3(C)[C@@H]([C@H](C)COC(=O)NS(=O)(=O)c4ccc(OC5CCC5)cc4)CC[C@@H]23)[C@@]2(C)CC[C@@H](O)C[C@@H]12` [Example 8] gave an EC50 of less than 1 nM.

`CC[C@H]1[C@@H](O)[C@@H]2[C@H](CC[C@]3(C)[C@@H]([C@H](C)COC(=O)NS(=O)(=O)c4ccc5c(c4)CCC(C)(C)O5)CC[C@@H]23)[C@@]2(C)CC[C@H](O)C[C@@H]12` [Example 33] had an EC50 of less than 1 nM.

`CC[C@H]1[C@@H](O)[C@@H]2[C@H](CC[C@]3(C)[C@@H]([C@H](C)COC(=O)NS(=O)(=O)c4ccc(OCC(C)(C)C)cc4)CC[C@@H]23)[C@@]2(C)CC[C@@H](O)C[C@@H]12` [Example 20] showed an EC50 of 1 to 10 nM.

In turn, `CC(C)Oc1ccc(S(=O)(=O)NC(=O)OC[C@@H](C)[C@H]2CC[C@H]3[C@@H]4[C@H](O)C[C@@H]5C[C@H](O)CC[C@]5(C)[C@H]4CC[C@]23C)cc1` [Example 3] showed an EC50 greater than 100 nM.
